Reference: US7144880B2, “Compositions relating to novel compounds and targets thereof” (Regents of the University of Michigan, priority 2003, dated 2006)

Legend:
[1] = tested on: central benzodiazepine receptor; experiment: Binding to the central benzodiazepine receptor
[2] = tested on: malignant B cell line Raji; experiment: Antiproliferation, 72 h, media with 10% FBS; type: cell-based; conditions: read-out: ED50 (μM) for antiproliferation
Experimental: (§1) Like most 1,4-benzodiazepines, Bz-423 binds strongly to bovine serum albumin (BSA), which reduces the effective concentration of drug free in solution. For example, in tissue culture media containing 10% (v/v) fetal bovine serum (FBS), ca. 99% of the drug is bound to BSA. Therefore, cell culture cytotoxicity assays are conducted in media with 2% FBS to reduce binding to BSA and increase the free [Bz-423]. Under these conditions, the dose response-curve is quite sharp such that there is a limited concentration range at which Bz-423 is only partly effective. Since some benzodiazepines are known to have anti-proliferative properties, the effect of Bz-423 at concentrations <ED50 were carefully analyzed and observed that in addition to inducing apoptosis, Bz-423 prevented cell growth after 3 d in culture. In these low serum conditions, the cytotoxic and anti-proliferative effects overlapped making it difficult to study each effect independently. […] While higher amounts of drug may also block proliferation, it caused apoptosis well before the effects on proliferation could be observed.
(§2) To confirm the decrease in cell number relative to control cells after 3 d of treatment is due to decreased proliferation and not cell death balanced by proliferation, in addition to cell counting, cell divisions were studied. PKH-67 is a fluorescent probe that binds irreversibly to cell membranes and upon cell division is partitioned equally between the daughter cells, making it possible to quantify cell division by flow cytometry. Ramos cells stained with PKH67 and treated with Bz-423 had fewer cell divisions at sub-cytotoxic concentrations which confirmed that the decrease in cell number was due to anti-proliferative affects and not cell death. To determine if Bz-423 induced anti-proliferation was specific to Ramos cells, cell counting and cell cycle experiments were done in other B cell lines and cell lines derived from solid tumors.

[3] = tested on: malignant B cell line CA46; experiment: Antiproliferation, 72 h, media with 10% FBS; type: cell-based; conditions: CA46, 72 h, read-out: ED50 (μM) for antiproliferation
Experimental: as §1, §2

[4] = tested on: neuroblastoma cell line Lan-1; experiment: Antiproliferation, 72 h, media with 10% FBS; type: cell-based; conditions: Lan-1, 72 h, read-out: ED50 (μM) for antiproliferation
Experimental: as §1, §2

[5] = tested on: neuroblastoma cell line SHEP-1; experiment: Antiproliferation, 72 h, media with 10% FBS; type: cell-based; conditions: SHEP-1, 72 h, read-out: ED50 (μM) for antiproliferation
Experimental: as §1, §2

[6] = tested on: ovarian cells with null p53 (SKOV3); experiment: Antiproliferation, 72 h, media with 10% FBS; type: cell-based; conditions: SKOV3, 72 h, read-out: ED50 (μM) for antiproliferation
Experimental: as §1, §2

[7] = tested on: neuroblastoma cell line IMR-32; experiment: Antiproliferation, 72 h, media with 10% FBS; type: cell-based; conditions: IMR-32, 72 h, read-out: ED50 (μM) for antiproliferation
Experimental: as §1, §2

Ramos cells = experiment: Antiproliferation, 72 h, media with 10% FBS; type: cell-based, human; conditions: read-out: ED50 (μM) for antiproliferation
Experimental: as §1, §2

[8] = tested on: Ramos clones transfected to overexpress Bcl-2; experiment: Antiproliferation, 72 h, media with 10% FBS; type: cell-based, human; conditions: Bcl-2 overexpressing Ramos, read-out: ED50 (μM) for antiproliferation
Experimental: as §1, §2

[9] = tested on: Ramos clones transfected to overexpress Bcl-xL; experiment: Antiproliferation, 72 h, media with 10% FBS; type: cell-based, human; conditions: Bcl-XL overexpressing Ramos, read-out: ED50 (μM) for antiproliferation
Experimental: as §1, §2

[10] = molecular target: T1, mitochondrial F1F0-ATPase (Bos taurus, UniProt P13621); experiment: ATPase activity in sub-mitochondrial particles (SMPs); type: biochemical, bovine; conditions: bovine SMPs; read-out: ED50, inhibition of mitochondrial ATPase activity
T1 construct: from tissue
Excerpt: Oligomycin, a macrolide natural product that binds to the mitochondrial F1F0-ATPase, induces a state 3 to 4 transition and generates O2^− like Bz-423. Based on these similarities, it is possible that the F1F0-ATPase is also the molecular target for Bz-423. To test this hypothesis, the effect of Bz-423 on ATPase activity in sub-mitochondrial particles (SMPs) was examined.
>40 derivatives of Bz-423 were developed to determine the elements on this novel agent required for biological activity. […] The potency of these analogues in cell based assays correlated with the ED50 values in ATPase inhibition experiments using SMPs.

[11] = molecular target: T2, bovine serum albumin (BSA) (Bos taurus, UniProt P02769); experiment: Binding to serum albumin in tissue culture media; type: in vitro ADME; conditions: tissue culture media containing 10% (v/v) FBS
T2 construct: from tissue; host or cells: fetal bovine serum (10% v/v) in tissue culture media
Experimental: as §1

human OSCP = molecular target: T3, human OSCP (Homo sapiens, UniProt P48047); experiment: Quenching of intrinsic OSCP fluorescence on titration (binding isotherm); conditions: human OSCP overexpressed in E. coli, fluorescence quenching
T3 construct: made in house; host or cells: E. coli
Excerpt: Oligomycin is a macrolide natural product that binds to the mitochondrial F1F0-ATPase, induces a state 3 to 4 transition, and as a result, generates ROS (e.g., O2^−). In preferred embodiments, the present invention binds the OSCP component of the mitochondrial F1F0-ATPase. In certain embodiments, screening assays of the present invention permit detection of binding partners of the OSCP. OSCP is an intrinsically fluorescent protein. In certain embodiments, titrating a solution of test compounds of the present invention into an E. Coli sample overexpressed with OSCP results in quenching of the intrinsic OSCP fluorescence. In other embodiments, fluorescent or radioactive test compounds can be used in direct binding assays. In other embodiments, competition binding experiments can be conducted. In this type of assay, test compounds are assessed for their ability to compete with Bz-423 for binding to the OSCP. In some embodiments, the compounds of the present invention cause a reduced increase in cellular ROS levels and reduced apoptosis in cells through regulation of the OSCP gene (e.g., altering expression of the OSCP gene). In further embodiments, the present invention functions by altering the molecular motions of the ATPase motor.
To determine if Bz-423 indeed binds to the OSCP and the affinity of the interaction, human OSCP was overexpressed in E. coli. […]

T2 sequence (P02769 25-607): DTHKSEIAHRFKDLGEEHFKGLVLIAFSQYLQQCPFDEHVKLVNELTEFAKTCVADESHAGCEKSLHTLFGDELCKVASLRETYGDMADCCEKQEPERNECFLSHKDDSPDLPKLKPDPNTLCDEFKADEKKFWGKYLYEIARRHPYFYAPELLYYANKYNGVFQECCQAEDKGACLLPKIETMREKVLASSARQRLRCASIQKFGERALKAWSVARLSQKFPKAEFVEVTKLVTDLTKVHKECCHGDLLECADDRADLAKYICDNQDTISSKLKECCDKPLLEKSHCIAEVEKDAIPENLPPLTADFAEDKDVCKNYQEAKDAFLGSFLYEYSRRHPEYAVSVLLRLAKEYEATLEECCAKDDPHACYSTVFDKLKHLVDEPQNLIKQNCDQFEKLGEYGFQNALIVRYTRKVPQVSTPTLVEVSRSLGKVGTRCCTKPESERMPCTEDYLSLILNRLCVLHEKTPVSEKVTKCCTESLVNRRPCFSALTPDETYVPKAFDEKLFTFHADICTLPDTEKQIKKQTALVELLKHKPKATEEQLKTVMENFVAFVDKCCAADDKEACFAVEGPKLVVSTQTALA
T3 sequence (P48047 24-213): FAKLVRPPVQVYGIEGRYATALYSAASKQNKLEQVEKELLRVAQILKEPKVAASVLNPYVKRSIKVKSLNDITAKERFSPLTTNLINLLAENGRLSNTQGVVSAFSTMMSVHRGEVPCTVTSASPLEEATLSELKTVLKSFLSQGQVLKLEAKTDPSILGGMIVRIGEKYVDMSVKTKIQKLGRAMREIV

In the case of `CN1C(=O)C(Cc2ccc3ccccc3c2)N=C(c2ccc(O)cc2)c2cc(Cl)ccc21` (stereo not shown) [Bz-423], the “Binding to the central benzodiazepine receptor” value [1] is reported as “prevents binding”, the EC50 [2] is reported as 12.9 µM and the EC50 [3] is reported as 13.4 µM. The EC50 [4] was 13.7 µM, the EC50 [5] was 15.9 µM and the EC50 [6] was 18.2 µM. For the same compound, the EC50 [7] was 18 µM, the EC50 (Ramos cells) was 10.7 µM and the EC50 [8] was 11.9 µM. The EC50 [9] was 13.7 µM, the EC50 [10] was ~5 µM and the “Drug bound to BSA” value [11] was “ca. 99%”. It also gave a Kd (human OSCP) of 0.2 ± 0.04 µM.
